Data on 3 molecules can be found in patent US20090047243A1, “COMBINATIONS FOR THE TREATMENT OF B-CELL PROLIFERATIVE DISORDERS” (priority 2007, published 2009).

Common to all, as to test: Anti-proliferation assay (ATPLite, 72 h)
On the technique in general: Cellular ATP, detected with luciferase, serves as a proxy for viable cell number.

The subject of experiment [1] is human multiple myeloma cells (MM.1S). The experiment is classed as cell-based. The arrangement: key to synergy score / synergy (score), PDEi × HE-NECA: S = lnfX·lnfY·ΣIdata(Idata−ILoewe), volume over Loewe additivity. The following applies: for inhibition at 0.256 µM / inhibition at 0.767 µM / inhibition at 2.3 µM / inhibition at 6.9 µM / inhibition at 20.7 µM: Homo sapiens, MM1.S, read-out: percent inhibition of ATP in MM.1S cells; for inhibition at 0.256 µM: Papaverine 0.256 μM; for inhibition at 0.767 µM: Papaverine 0.767 μM; for inhibition at 2.3 µM: Papaverine 2.3 μM; for inhibition at 6.9 µM: Papaverine 6.9 μM; for inhibition at 20.7 µM: Papaverine 20.7 μM. The procedure:
(§1) ANBL6 and INA-6 culture media was also supplemented with 10 ng/ml IL-6. […] MM.1S, MM.1R, OCI-ly10, Karpas 422, and SU-DHL6 cells were provided by the Dana Farber Cancer Institute. H929, RPMI-8226, GA-10, and Farage cells were from ATCC (Cat #'s CCL-155, CRL-9068, CRL-2392 and CRL-2630 respectively). MOLP-8, EJM, KSM-12-PE, and OPM2 were from DSMZ. The ANBL6 and INA-6 cell lines were provided by the M. D. Anderson Cancer Research Center. Compounds were prepared in DMSO at 1000× the highest desired concentration. Master plates were generated consisting of serially diluted compounds in 2- or 3-fold dilutions in 384-well format. For single agent dose response curves, the master plates consisted of 9 individual compounds at 12 concentrations in 2- or 3-fold dilutions. For combination matrices, master plates consisted of individual compounds at 6 or 9 concentrations at 2- or 3-fold dilutions. […] To obtain combination data, two master plates were diluted into the assay plates. […] Thirty microliters of ATPLite (Perkin Elmer) at room temperature was then added to each well. […] Measurements were taken at the top of the well using a luminescence aperture and a read time of 0.1 seconds per well. The percent inhibition (% I) for each well was calculated using the following formula: % I=[(avg. untreated wells-treated well)/(avg. untreated wells)]×100. […] Negative inhibition values result from local variations in treated wells as compared to untreated wells. […] The uncertainty of each fitted parameter was estimated from the range over which the change in reduced chi-squared was less than one, or less than minimum reduced chi-squared if that minimum exceeded one, to allow for underestimated σI errors. Single agent curve data were used to define a dilution series for each compound to be used for combination screening in a 6×6 matrix format. […] The Loewe additivity model was used to quantify combination effects. […] A “Synergy Score” was also used, where the Synergy Score S=log fX log fY ΣIdata(Idata-ILoewe), summed over all non-single-agent concentration pairs, and where log fX,Y is the natural logarithm of the dilution factors used for each single agent. This effectively calculates a volume between the measured and Loewe additive response surfaces, weighted towards high inhibition and corrected for varying dilution factors. An uncertainty σS was calculated for each synergy score, based on the measured errors for the Idata values and standard error propagation.

Experiment [2] relates to human multiple myeloma cells (MM.1R). The experiment is classed as cell-based. The arrangement: key: S = lnfX·lnfY·ΣIdata(Idata−ILoewe), volume over Loewe additivity. The procedure: as §1
In experiment [3] the test system is H929 multiple myeloma cell line. The class given is cell-based, human. Details: key: S = lnfX·lnfY·ΣIdata(Idata−ILoewe), volume over Loewe additivity. The procedure: as §1
Experiment [4] deals with RPMI-8226 multiple myeloma cell line. The class given is cell-based, human. The arrangement: key: S = lnfX·lnfY·ΣIdata(Idata−ILoewe), volume over Loewe additivity. As for the experimental part:
as §1

[5] abbreviates: 10 ng/mL IL-6, HE-NECA conc. (μM).
[6] abbreviates: PDE inhibitor crossed with (S) ENBA, MM.1S.
The mark [7] stands for this setting: PDE inhibitor crossed with ADAC, MM.1S.
Where [8] appears, read: PDE inhibitor crossed with Chloro-IB-MECA, MM.1S.
The mark [9] stands for this setting: PDE inhibitor crossed with HE-NECA, MM.1S.
Where [10] appears, read: in combination with adenosine receptor agonist ADAC, MM.1S.
The mark [11] stands for this setting: in combination with adenosine receptor agonist ADAC, MM.1R.
The mark [12] stands for this setting: PDE inhibitor crossed with (S) ENBA, H929.
Setting [13] is: PDE inhibitor crossed with ADAC, H929.
The mark [14] stands for this setting: PDE inhibitor crossed with Chloro-IB-MECA, H929.
Where [15] appears, read: PDE inhibitor crossed with HE-NECA, H929.
The mark [16] stands for this setting: in combination with adenosine receptor agonist ADAC, H929.
Where [17] appears, read: in combination with adenosine receptor agonist ADAC, RPMI-8226.

Each structure is given as a SMILES string. Structures can show the parent of a compound that is named as a salt. Where two headings read alike, the source gives them in different places.

Usually inhibition stands for the drop in the measured response relative to a control, in per cent. Take `COc1ccc(Cc2nccc3cc(OC)c(OC)cc23)cc1OC` [Papaverine hydrochloride, 1-[(3.4-dimethoxyphenyl)-methyl]-6,7-dimethoxyisoquinolone]: the inhibition at 0.256 µM in experiment [1] (setting [5]) is -2.4%; in experiment [1] (no IL-6, HE-NECA conc. (nM)) it was 9.1%. In addition, the inhibition at 0.767 µM was -0.1% in experiment [1] (setting [5]) and 8.8% in experiment [1] (no IL-6, HE-NECA conc. (nM)). The inhibition at 2.3 µM in experiment [1] (setting [5]) was 7.9%; in experiment [1] (no IL-6, HE-NECA conc. (nM)), 23%. The inhibition at 6.9 µM came to 46% in experiment [1] (setting [5]) and 46% in experiment [1] (no IL-6, HE-NECA conc. (nM)). The inhibition at 20.7 µM in experiment [1] (setting [5]) was found to be 70%; in experiment [1] (no IL-6, HE-NECA conc. (nM)), 68%. In addition, the synergy score in experiment [1] (setting [6]) worked out at 2.24; in experiment [1] (setting [7]) it was 3.55; in experiment [1] (setting [8]) it was 2.67; in experiment [1] (setting [9]), 2.09; in experiment [1] (setting [10]) it was 3.554; in experiment [1] (in combination with adenosine receptor agonist HE-NECA, MM.1S), 2.087. Further, the synergy score in experiment [2] (setting [11]) came out at 3.395; in experiment [2] (in combination with adenosine receptor agonist HE-NECA, MM.1R) it was 2.128; in experiment [3] (setting [12]), 0.77; in experiment [3] (setting [13]) it was 1.19; in experiment [3] (setting [14]), 1.42; in experiment [3] (setting [15]) it was 1.03. Also, the synergy score in experiment [3] (setting [16]) was 1.193; in experiment [3] (in combination with adenosine receptor agonist HE-NECA, H929), 1.025; in experiment [4] (setting [17]) it was 1.158; in experiment [4] (in combination with adenosine receptor agonist HE-NECA, RPMI-8226) it was 0.3933.
On to `CC(C)C(=O)c1c(C(C)C)nn2ccccc12` [Ibudilast, 1-(2-isopropyl-pyrazolo[1,5-a]pyridine-3-yl)-2-methylpropan-1-one], for which the synergy score in experiment [1] (setting [6]) came out at 0.55; in experiment [1] (setting [7]) it was 0.23; in experiment [1] (setting [8]) it was 0.74; in experiment [1] (setting [9]) it was 0.98; in experiment [1] (in combination with adenosine receptor agonist CGS-21680, MM.1S) it was 2.22; in experiment [1] (in combination with adenosine receptor agonist regadenoson, MM.1S), 0.37. Moreover, the synergy score is given as 2.29 in experiment [2] (in combination with adenosine receptor agonist CGS-21680, MM.1R); 1 in experiment [2] (in combination with adenosine receptor agonist regadenoson, MM.1R); 0.21 in experiment [3] (setting [12]); 1.04 in experiment [3] (setting [13]); 0.32 in experiment [3] (setting [14]); 0.32 in experiment [3] (setting [15]). Also, the synergy score in experiment [3] (in combination with adenosine receptor agonist CGS-21680, H929) came out at 1.76; in experiment [3] (in combination with adenosine receptor agonist regadenoson, H929), 1.08; in experiment [4] (in combination with adenosine receptor agonist CGS-21680, RPMI 8226) it was 0.47; in experiment [4] (in combination with adenosine receptor agonist regadenoson, RPMI 8226) it was 0.29.
For `OCCN(CCO)c1nc(N2CCCCC2)c2nc(N(CCO)CCO)nc(N3CCCCC3)c2n1` [Dipyridamole, 2-{[9-(bis(2-hydroxyethyl)amino)-2,7-bis(1-piperidyl)-3,5,8,10-tetrazabicyclo[4.4.0]deca-2,4,7,9,11-pentaen-4-yl]-(2-hydroxyethyl)amino}ethanol], the synergy score was 0.17 in experiment [1] (setting [6]); 1.18 in experiment [1] (setting [7]); 0.20 in experiment [1] (setting [8]); 0.08 in experiment [1] (setting [9]); 1.18 in experiment [1] (setting [10]); 1.34 in experiment [2] (setting [11]). Also, the synergy score in experiment [3] (setting [12]) amounted to 0.26; in experiment [3] (setting [13]), 2.05; in experiment [3] (setting [14]), 0.08; in experiment [3] (setting [15]), 0.13; in experiment [3] (setting [16]), 2.05; in experiment [4] (setting [17]), 0.62.
